Results: the NIST ThermoML archive (doi:10.1016/j.jct.2014.01.012)

Assay: xn = mol fraction of the nth substance listed
Details: 101 kPa, Liquid

CCCCCCCC[n+]1ccn(C)c1.F[P-](F)(F)(F)(F)F [1-octyl-3-methylimidazolium hexafluorophosphate] + CCCCOC(C)=O
Details | mass density [kg/m3] | speed of sound [m/s]
293.15 K, x1 = 0.1078 | 957.599 | 1231.1
293.15 K, x1 = 0.2016 | 1010.44 | 1251
293.15 K, x1 = 0.3056 | 1058.02 | 1273.2
293.15 K, x1 = 0.3855 | 1088.56 | 1291.6
293.15 K, x1 = 0.4815 | 1119.98 | 1309.4
293.15 K, x1 = 0.5918 | 1150.6 | 1328.2
293.15 K, x1 = 0.6857 | 1173.18 | 1343.6
293.15 K, x1 = 0.7784 | 1193.01 | 1358.4
293.15 K, x1 = 0.8946 | 1215.11 | 1375.1
293.15 K, x1 = 1 | 1222.81 | 1388.2
298.15 K, x1 = 0.1078 | 953.226 | 1211.6
298.15 K, x1 = 0.2016 | 1006.23 | 1232.7
298.15 K, x1 = 0.3056 | 1053.87 | 1256.9
298.15 K, x1 = 0.3855 | 1084.42 | 1275
298.15 K, x1 = 0.4815 | 1115.96 | 1293.4
298.15 K, x1 = 0.5918 | 1146.75 | 1313.3
298.15 K, x1 = 0.6857 | 1169.44 | 1328.8
298.15 K, x1 = 0.7784 | 1189.32 | 1343.7
298.15 K, x1 = 0.8946 | 1211.35 | 1361.6
298.15 K, x1 = 1 | 1218.9 | 1373.4
303.15 K, x1 = 0.1078 | 948.745 | 1192.2
303.15 K, x1 = 0.2016 | 1001.93 | 1214.5
303.15 K, x1 = 0.3056 | 1049.62 | 1239.7
303.15 K, x1 = 0.3855 | 1080.26 | 1258.8
303.15 K, x1 = 0.4815 | 1111.97 | 1278.6
303.15 K, x1 = 0.5918 | 1142.89 | 1298.6
303.15 K, x1 = 0.6857 | 1165.73 | 1314.7
303.15 K, x1 = 0.7784 | 1185.68 | 1329.6
303.15 K, x1 = 0.8946 | 1207.65 | 1347.1
303.15 K, x1 = 1 | 1214.96 | 1359.3
308.15 K, x1 = 0.1078 | 944.257 | 1172.8
308.15 K, x1 = 0.2016 | 997.643 | 1196.4
308.15 K, x1 = 0.3056 | 1045.4 | 1222.6
308.15 K, x1 = 0.3855 | 1076.13 | 1242.8
308.15 K, x1 = 0.4815 | 1107.98 | 1263.5
308.15 K, x1 = 0.5918 | 1139.12 | 1284
308.15 K, x1 = 0.6857 | 1162.11 | 1300.8
308.15 K, x1 = 0.7784 | 1182.13 | 1315.8
308.15 K, x1 = 0.8946 | 1204.03 | 1333.5
308.15 K, x1 = 1 | 1211.13 | 1345.8
313.15 K, x1 = 0.1078 | 939.644 | 1153.7
313.15 K, x1 = 0.2016 | 993.304 | 1178.5
313.15 K, x1 = 0.3056 | 1041.23 | 1205.7
313.15 K, x1 = 0.3855 | 1072.05 | 1226.9
313.15 K, x1 = 0.4815 | 1104.1 | 1248.4
313.15 K, x1 = 0.5918 | 1135.23 | 1269.7
313.15 K, x1 = 0.6857 | 1158.31 | 1286.8
313.15 K, x1 = 0.7784 | 1178.4 | 1302.1
313.15 K, x1 = 0.8946 | 1200.3 | 1322.1
313.15 K, x1 = 1 | 1207.33 | 1332.7
318.15 K, x1 = 0.1078 | 935.027 | 1134.6
318.15 K, x1 = 0.2016 | 988.947 | 1160.7
318.15 K, x1 = 0.3056 | 1037 | 1189
318.15 K, x1 = 0.3855 | 1067.9 | 1211.2
318.15 K, x1 = 0.4815 | 1100.12 | 1233.6
318.15 K, x1 = 0.5918 | 1131.33 | 1255.5
318.15 K, x1 = 0.6857 | 1154.61 | 1273.1
318.15 K, x1 = 0.7784 | 1174.85 | 1288.7
318.15 K, x1 = 0.8946 | 1196.83 | 1309.5
318.15 K, x1 = 1 | 1203.5 | 1320.1
323.15 K, x1 = 0.1078 | 930.067 | 1115.7
323.15 K, x1 = 0.2016 | 984.404 | 1143
323.15 K, x1 = 0.3056 | 1032.8 | 1172.3
323.15 K, x1 = 0.3855 | 1063.84 | 1195.6
323.15 K, x1 = 0.4815 | 1096.14 | 1218.8
323.15 K, x1 = 0.5918 | 1127.43 | 1241.6
323.15 K, x1 = 0.6857 | 1150.89 | 1259.4
323.15 K, x1 = 0.7784 | 1171.35 | 1275.5
323.15 K, x1 = 0.8946 | 1193.45 | 1296.1
323.15 K, x1 = 1 | 1199.67 | 1307.7
